In US10179771B2 (GALAPAGOS NV, priority 2014, dated 2019):

Assays:
[1] = biological target: T1, Recombinant human JAK2 catalytic domain (Homo sapiens, UniProt O60674); assay: JAK2 inhibition assay (polyGT substrate / Ulight-JAK1 peptide assay); assay type: biochemical; conditions: Illustrative Compounds of the invention (Table VII)
T1 construct: Recombinant human JAK2 catalytic domain (amino acids 808-1132; catalog number PV4210); GST; purchased Invitrogen PV4210
Procedure: Recombinant human JAK2 catalytic domain (amino acids 808-1132; catalog number PV4210) was purchased from Invitrogen. 0.025 mU of JAK2 is incubated with […] polyGT substrate (Sigma catalog number P0275) in kinase reaction buffer (5 mM MOPS pH 7.5, 9 mM MgAc, 0.3 mM EDTA, 0.06% Brij and 0.6 mM DTT, 1 μM non-radioactive ATP, 0.25 μCi ^33P-gamma-ATP (GE Healthcare, catalog number AH9968) final concentrations) with or without 5 μL containing test compound or vehicle (DMSO, 1% final concentration), in a total volume of 25 μL, in a polypropylene 96-well plate (Greiner, V-bottom). After 90 min at 30° C., reactions are stopped by adding of 25 μL/well of 150 mM phosphoric acid. All of the terminated kinase reaction is transferred to prewashed (75 mM phosphoric acid) 96 well filter plates (Perkin Elmer catalog number 6005177) using a cell harvester (Perkin Elmer). Plates are washed 6 times with 300 μL per well of a 75 mM phosphoric acid solution and the bottom of the plates is sealed. 40 μL/well of Microscint-20 is added, the top of the plates is sealed and readout is performed using the Topcount (Perkin Elmer). Kinase activity is calculated by subtracting counts per min (cpm) obtained in the presence of a positive control inhibitor (10 μM staurosporine) from cpm obtained in the presence of vehicle. The ability of a test compound to inhibit this activity is determined as:
(§1) [formula] • RFU test compound=RFU determined for sample with test compound present • RFU control=RFU determined for sample with positive control inhibitor • RFU vehicle=RFU determined in the presence of vehicle
Dose dilution series are prepared for the compounds enabling the testing of dose-response effects in the JAK2 assay and the calculation of the IC50 for each compound. Each compound is routinely tested at concentration of 20 μM followed by a 1/3 serial dilution, 8 points (20 μM-6.67 μM-2.22 μM-740 nM-247 nM-82 nM-27 nM-9 nM) in a final concentration of 1% DMSO. When potency of compound series increased, more dilutions are prepared and/or the top concentration is lowered (e.g. 5 μM, 1 μM).
Recombinant human JAK2 (catalytic domain, amino acids 866-1154; catalog number PV4210) was purchased from Invitrogen. 0.0125 mU of JAK2 was incubated with 25 nM Ulight-JAK1 (tyr1023) peptide (Perkin Elmer catalog number TRF0121) in kinase reaction buffer (25 mM HEPES pH7.0, 0.01% Triton X-100, 7.5 mM MgCl2, 2 mM DTT, 7.5 μM ATP) with or without 4 μL containing test compound or vehicle (DMSO, 1% final concentration), in a total volume of 20 μL, in a white 384 Opti plate (Perkin Elmer, catalog number 6007290). After 60 min at room temperature, reactions were stopped by adding 20 μL/well of detection mixture (1× detection buffer (Perkin Elmer, catalog number CR97-100C), 0.5 nM Europium-anti-phosphotyrosine (PT66) (Perkin Elmer, catalog number AD0068), 10 mM EDTA). Readout is performed using the Envision with excitation at 320 nm and measuring emission at 615 nm (Perkin Elmer). Kinase activity was calculated by subtracting relative fluorescence units (RFU) obtained in the presence of a positive control inhibitor (10 μM staurosporine) from RFU obtained in the presence of vehicle. The ability of a test compound to inhibit this activity was determined as: Percentage inhibition=((RFU determined for sample with test compound present−RFU determined for sample with positive control inhibitor) divided by (RFU determined in the presence of vehicle−RFU determined for sample with positive control inhibitor))*100.
Dose dilution series are prepared for compound enabling the testing of dose-response effects in the JAK2 assay and the calculation of the IC50 for the compound. Each compound is routinely tested at concentration of 20 μM followed by a 1/5 serial dilution, 10 points in a final concentration of 1% DMSO. When potency of compound series increases, more dilutions are prepared and/or the top concentration are lowered (e.g. 5 μM, 1 μM). […]

[2] = biological target: T2, Recombinant human JAK3 catalytic domain (Homo sapiens, UniProt P52333); assay: JAK3 inhibition assay; assay type: biochemical; conditions: Illustrative Compounds of the invention (Table IX)
T2 construct: Recombinant human JAK3 catalytic domain (amino acids 781-1124; catalog number PV3855); purchased Invitrogen PV3855
Procedure: Recombinant human JAK3 catalytic domain (amino acids 781-1124; catalog number PV3855) was purchased from Invitrogen. 0.5 ng JAK3 protein was incubated with 2.5 μg polyGT substrate (Sigma catalog number P0275) in kinase reaction buffer (25 mM Tris pH 7.5, 0.5 mM EGTA, 10 mM MgCl2, 2.5 mM DTT, 0.5 mM Na3VO4, 5 mM b-glycerolphosphate, 0.01% Triton X-100, 1 μM non-radioactive ATP, […] ^33P-gamma-ATP (GE Healthcare, catalog number AH9968) final concentrations) with or without 5 μL containing test compound or vehicle (DMSO, 1% final concentration), in a total volume of 25 μL, in a polypropylene 96-well plate (Greiner, V-bottom). After 45 min at 30° C., reactions were stopped by adding 25 μL/well of 150 mM phosphoric acid. All of the terminated kinase reaction was transferred to prewashed (75 mM phosphoric acid) 96 well filter plates (Perkin Elmer catalog number 6005177) using a cell harvester (Perkin Elmer). Plates were washed 6 times with 300 μL per well of a 75 mM phosphoric acid solution and the bottom of the plates was sealed. 40 μL/well of Microscint-20 was added, the top of the plates was sealed and readout was performed using the Topcount (Perkin Elmer). Kinase activity was calculated by subtracting counts per min (cpm) obtained in the presence of a positive control inhibitor (10 μM staurosporine) from cpm obtained in the presence of vehicle. The ability of a test compound to inhibit this activity was determined as:
as §1
Dose dilution series were prepared for the compounds enabling the testing of dose-response effects in the JAK3 assay and the calculation of the IC50 for each compound. Each compound was routinely tested at concentration of 20 μM followed by a 1/5 serial dilution, 10 points in a final concentration of 1% DMSO. When potency of compound series increased, more dilutions were prepared and/or the top concentration was lowered (e.g. 5 μM, 1 μM).

T2 sequence (P52333 781-1124): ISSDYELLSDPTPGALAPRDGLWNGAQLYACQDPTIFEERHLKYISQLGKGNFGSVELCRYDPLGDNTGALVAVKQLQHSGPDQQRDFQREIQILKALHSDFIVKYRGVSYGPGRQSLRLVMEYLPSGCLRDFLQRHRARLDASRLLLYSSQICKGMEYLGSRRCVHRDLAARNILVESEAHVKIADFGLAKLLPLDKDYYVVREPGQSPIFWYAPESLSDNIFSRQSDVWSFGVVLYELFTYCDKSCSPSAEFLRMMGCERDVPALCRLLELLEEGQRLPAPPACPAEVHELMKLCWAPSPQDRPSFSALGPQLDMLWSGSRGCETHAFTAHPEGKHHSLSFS
T1 sequence (O60674 808-1132): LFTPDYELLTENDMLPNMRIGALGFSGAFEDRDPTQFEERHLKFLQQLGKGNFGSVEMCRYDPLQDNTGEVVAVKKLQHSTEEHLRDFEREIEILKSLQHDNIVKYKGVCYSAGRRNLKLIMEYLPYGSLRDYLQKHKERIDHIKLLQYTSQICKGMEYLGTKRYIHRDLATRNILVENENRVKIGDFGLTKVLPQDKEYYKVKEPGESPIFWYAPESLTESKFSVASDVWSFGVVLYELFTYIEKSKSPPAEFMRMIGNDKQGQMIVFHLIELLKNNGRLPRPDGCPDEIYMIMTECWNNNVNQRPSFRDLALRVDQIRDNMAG

SMILES | IC50 [1] [nM] | IC50 [2] [nM]
Cc1cc(C(N)=O)ncc1Oc1cc(NC(=O)[C@H]2C[C@H]2F)c2ncn(C)c2c1 [Cpd 32, 5-[7-[[(1R,2R)-2-fluorocyclopropanecarbonyl]amino]-3-methyl-benzimidazol-5-yl]oxy-4-methyl-pyridine-2-carboxamide] | 50 to 100 | > 500
CCc1cc(C#N)ncc1N(C)c1cc(NC(=O)OC)c2ncn(C)c2c1 [Cpd 4, methyl 6-((6-cyano-4-ethylpyridin-3-yl)(methyl)amino)-1-methyl-1H-benzo[d]imidazol-4-ylcarbamate] | 0.1 to 50 | 100 to 500
Cc1cc(S(C)(=O)=O)cc(F)c1N(C)c1cc(NC(=O)[C@H]2C[C@H]2F)c2ncn(C)c2c1 [Cpd 16, (1R,2R)-2-fluoro-N-[6-(2-fluoro-N,6-dimethyl-4-methylsulfonyl-anilino)-1-methyl-benzimidazol-4-yl]cyclopropanecarboxamide] | 0.1 to 50 | 50 to 100
Cc1cnc(C#N)c(F)c1N(C)c1cc(NC(=O)[C@H]2C[C@H]2F)c2ncn(C)c2c1 [Cpd 22, (1R,2R)-N-[6-[(2-cyano-3-fluoro-5-methyl-4-pyridyl)-methyl-amino]-1-methyl-benzimidazol-4-yl]-2-fluoro-cyclopropanecarboxamide] | 0.1 to 50 | 100 to 500
Cc1cc(C#N)ncc1Oc1cc(NC(=O)[C@H]2C[C@H]2F)c2ncn(C)c2c1 [Cpd 20, (1R,2R)-N-[6-[(6-cyano-4-methyl-3-pyridyl)oxy]-1-methyl-benzimidazol-4-yl]-2-fluoro-cyclopropanecarboxamide] | 50 to 100 | > 500
CCS(=O)(=O)c1ccc(N(C)c2cc(NC(=O)[C@H]3C[C@H]3F)c3ncn(C)c3c2)c(C)c1 [Cpd 27, (1R,2R)-N-[6-(4-ethylsulfonyl-N,2-dimethyl-anilino)-1-methyl-benzimidazol-4-yl]-2-fluoro-cyclopropanecarboxamide] | 100 to 500 | 100 to 500
CCc1cc(C#N)cc(F)c1Nc1cc(NC(=O)C2CC2)c2ncn(C)c2c1 [Cpd 2, N-(6-(4-cyano-2-ethyl-6-fluorophenylamino)-1-methyl-1H-benzo[d]imidazol-4-yl)cyclopropanecarboxamide] | 0.1 to 50 | 0.1 to 50
CN(c1cc(NC(=O)[C@H]2C[C@H]2F)c2ncn(C)c2c1)c1c(F)cc(C#N)cc1Cl [Cpd 11, (1R,2R)-N-[6-(2-chloro-4-cyano-6-fluoro-N-methyl-anilino)-1-methyl-benzimidazol-4-yl]-2-fluoro-cyclopropanecarboxamide] | 0.1 to 50 | 100 to 500

Continued, values first:

IC50 [1] [nM] | IC50 [2] [nM] | SMILES
0.1 to 50 | 100 to 500 | Cc1cc(C#N)ncc1N(C)c1cc(NC(=O)[C@H]2C[C@H]2F)c2ncn(C)c2c1 [Cpd 9, (1R,2R)-N-(6-((6-cyano-4-methylpyridin-3-yl)(methyl)amino)-1-methyl-1H-benzo[d]imidazol-4-yl)-2-fluorocyclopropanecarboxamide]
> 500 | > 500 | Cc1cc(C#N)ncc1Oc1cc(N)c2ncn(C)c2c1 [Cpd 28, 5-(7-amino-3-methyl-benzimidazol-5-yl)oxy-4-methyl-pyridine-2-carbonitrile]
100 to 500 | > 500 | CN(c1cc(NC(=O)[C@H]2C[C@H]2F)c2ncn(C)c2c1)c1ccc(F)nc1F [Cpd 13, (1R,2R)-N-[6-[(2,6-difluoro-3-pyridyl)-methyl-amino]-1-methyl-benzimidazol-4-yl]-2-fluoro-cyclopropanecarboxamide]
100 to 500 | > 500 | CN(c1cc(NC(=O)[C@H]2C[C@H]2F)c2ncn(C)c2c1)c1ccc(C#N)cc1F [Cpd 15, (1R,2R)-N-[6-(4-cyano-2-fluoro-N-methyl-anilino)-1-methyl-benzimidazol-4-yl]-2-fluoro-cyclopropanecarboxamide]
0.1 to 50 | 100 to 500 | CCc1cc(C(N)=O)ncc1N(C)c1cc(NC(=O)C2CC2)c2ncn(C)c2c1 [Cpd 24, 5-((4-(cyclopropanecarboxamido)-1-methyl-1H-benzo[d]imidazol-6-yl)(methyl)amino)-4-ethylpicolinamide]
100 to 500 | > 500 | Cc1cc(C#N)ncc1Oc1cc(NC(=O)NC(C)C)c2ncn(C)c2c1 [Cpd 38, 1-[6-[(6-cyano-4-methyl-3-pyridyl)oxy]-1-methyl-benzimidazol-4-yl]-3-isopropyl-urea]
0.1 to 50 | 50 to 100 | CCc1cc(C#N)ncc1N(C)c1cc(NC(=O)C2CC2)c2ncn(C)c2c1 [Cpd 1, N-(6-((6-cyano-4-ethylpyridin-3-yl)(methyl)amino)-1-methyl-1H-benzo[d]imidazol-4-yl)cyclopropanecarboxamide]
0.1 to 50 | 100 to 500 | CCc1cc(C#N)ccc1Oc1cc(NC(=O)[C@H]2C[C@H]2F)c2ncn(C)c2c1 [Cpd 10, (1R,2R)-N-[6-(4-cyano-2-ethyl-phenoxy)-1-methyl-benzimidazol-4-yl]-2-fluoro-cyclopropanecarboxamide]
> 500 | > 500 | Cc1cc(C#N)ncc1Oc1cc(NC(=O)N2CC(O)C2)c2ncn(C)c2c1 [Cpd 36, N-[6-[(6-cyano-4-methyl-3-pyridyl)oxy]-1-methyl-benzimidazol-4-yl]-3-hydroxy-azetidine-1-carboxamide]
> 500 | > 500 | Cc1cc(C#N)ncc1Oc1cc(N(C)C)c2ncn(C)c2c1 [Cpd 35, 5-[7-(dimethylamino)-3-methyl-benzimidazol-5-yl]oxy-4-methyl-pyridine-2-carbonitrile]
